Results on 13 compounds are retold here after PubChem BioAssay (NCI).

Test systems include CCRF-CEM leukemia; HS 578T breast; A549 NSCLC; HT29 colon; HOP-92 NSCLC; K-562 leukemia; IGROV1 ovarian; BT-549 breast; SF-295 CNS; COLO 205 colon; SR leukemia.
Holding throughout (assay): NCI-60 cell line screen, 48 h

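Dose response: 5 concentrations. Exposure: 48 h. Format: 96-well plates. Endpoint: linear interpolation; highest concentration if not reached. TGI is the concentration that stops growth completely.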

As for `Cc1oc2nc(N(C)C)n3nnnc3c2c1C`, the TGI in the experiment on CCRF-CEM leukemia, with HS 578T breast, in the experiment on A549 NSCLC, in the experiment on HT29 colon, in the experiment on HOP-92 NSCLC and in the experiment on K-562 leukemia was more than 100 µM throughout. The TGI with IGROV1 ovarian, in the experiment with BT-549 breast, with SF-295 CNS and in the experiment with COLO 205 colon was more than 100 µM throughout.
Regarding `Cc1nc(Cl)c(CBr)c(Cl)n1`, the TGI was 0.772 µM with CCRF-CEM leukemia; 5.94 µM in the experiment on HS 578T breast; 12.4 µM in the experiment with A549 NSCLC; 0.887 µM in the experiment on K-562 leukemia; 3.39 µM in the experiment with IGROV1 ovarian; 0.554 µM with SR leukemia. Moreover, the results for the TGI in the experiment with BT-549 breast, in the experiment with SF-295 CNS and with COLO 205 colon were 0.747 µM, 22.9 µM and 3.15 µM, respectively.
`C[C@]12CC/C(=N\O)C=C1CC[C@@H]1[C@@H]2CC[C@]2(C)C(=N/O)/C(=C/c3cccnc3)C[C@@H]12`: the TGI with CCRF-CEM leukemia is more than 100 µM; in the experiment on HS 578T breast, 18.6 µM; in the experiment on A549 NSCLC, 59.8 µM; with HT29 colon, 79.5 µM; with HOP-92 NSCLC, 63.5 µM; in the experiment on K-562 leukemia it was 27.7 µM. Besides, the TGI is more than 100 µM in the experiment on IGROV1 ovarian, 54.3 µM with BT-549 breast, 31.7 µM in the experiment on SF-295 CNS and 61.8 µM in the experiment with COLO 205 colon.
`COC(c1ccc(C(C)(C)C)cc1)(c1ccc(C(C)(C)C)cc1)c1cc(C(O)(c2cc(C(OC)(c3ccc(C(C)(C)C)cc3)c3ccc(C(C)(C)C)cc3)c(C)cc2C)c2cc(C(OC)(c3ccc(C(C)(C)C)cc3)c3ccc(C(C)(C)C)cc3)c(C)cc2C)c(C)cc1C`: the TGI with CCRF-CEM leukemia, in the experiment with HS 578T breast, with A549 NSCLC, in the experiment on HT29 colon, in the experiment with HOP-92 NSCLC and with K-562 leukemia was more than 100 µM each time. The TGI in the experiment on IGROV1 ovarian, in the experiment on SR leukemia, with BT-549 breast, with SF-295 CNS and in the experiment on COLO 205 colon was more than 100 µM throughout.
Regarding `COc1ccc2c(c1)C(=O)c1ccccc1C2`, the TGI with CCRF-CEM leukemia, with HS 578T breast, with A549 NSCLC, with HT29 colon, in the experiment with HOP-92 NSCLC and in the experiment with K-562 leukemia was more than 100 µM throughout. The TGI in the experiment with IGROV1 ovarian, in the experiment on SR leukemia, with BT-549 breast, with SF-295 CNS and in the experiment with COLO 205 colon was more than 100 µM in each case.
Regarding `O=c1nc2c(c(-c3cccc(Cl)c3)[nH]1)COC/C2=C\c1cccc(Cl)c1`, the TGI in the experiment on CCRF-CEM leukemia, in the experiment with HS 578T breast, with HOP-92 NSCLC, in the experiment on K-562 leukemia, with IGROV1 ovarian and in the experiment on SR leukemia was more than 100 µM throughout. The TGI with BT-549 breast, with SF-295 CNS and in the experiment on COLO 205 colon was more than 100 µM throughout.
Regarding `CC1=CC=CC(C)(C)CC1(O[Si](C)(C)C)C(F)(F)F` (stereo not drawn), the TGI with CCRF-CEM leukemia, in the experiment with HS 578T breast, with A549 NSCLC, in the experiment with HT29 colon, with HOP-92 NSCLC and in the experiment with K-562 leukemia was more than 100 µM throughout. The TGI in the experiment with IGROV1 ovarian, in the experiment on SR leukemia, in the experiment on BT-549 breast, in the experiment on SF-295 CNS and with COLO 205 colon was more than 100 µM each time.
As to `CN(O)C(=O)Cc1ccc(OCc2cccc(Cl)c2)cc1`, the TGI with CCRF-CEM leukemia, in the experiment on HS 578T breast, with A549 NSCLC, in the experiment with HT29 colon, in the experiment with HOP-92 NSCLC and with K-562 leukemia was more than 100 µM each time. The TGI in the experiment with IGROV1 ovarian, in the experiment with SR leukemia, with BT-549 breast, with SF-295 CNS and in the experiment on COLO 205 colon was more than 100 µM in each case.
Take `CN1C(=O)CN(NC(=O)C2=C(O)c3ccc(Br)cc3S(=O)(=O)N2)C1=S`: the TGI with CCRF-CEM leukemia is 51.1 µM; in the experiment on HS 578T breast, more than 100 µM; with A549 NSCLC, more than 100 µM; in the experiment with HT29 colon it was more than 100 µM; in the experiment on HOP-92 NSCLC it was more than 100 µM; in the experiment with K-562 leukemia, more than 100 µM. The TGI in the experiment on IGROV1 ovarian, in the experiment with SR leukemia, with BT-549 breast, in the experiment with SF-295 CNS and with COLO 205 colon was more than 100 µM in each case.
Turning to `O=C1CC(c2ccc([N+](=O)[O-])cc2)C2(C(=O)NC(=S)NC2=O)C(c2ccc([N+](=O)[O-])cc2)C1` (stereo not drawn), the TGI in the experiment on CCRF-CEM leukemia is more than 100 µM; with HS 578T breast, 88.2 µM; in the experiment on A549 NSCLC it was 50.4 µM; with HT29 colon, more than 100 µM; with HOP-92 NSCLC, more than 100 µM; in the experiment with K-562 leukemia, more than 100 µM. Moreover, the TGI with IGROV1 ovarian was 45.2 µM; in the experiment with SR leukemia, more than 100 µM; in the experiment on BT-549 breast, 34.1 µM; with SF-295 CNS, 60.1 µM; with COLO 205 colon, more than 100 µM.
On to `CC1=CC(=O)N(n2c(C)n[nH]c2=O)C1=O`, for which the TGI with CCRF-CEM leukemia, in the experiment on HS 578T breast, with A549 NSCLC, with HT29 colon, in the experiment with HOP-92 NSCLC and with K-562 leukemia was more than 100 µM throughout. The TGI with IGROV1 ovarian, with SR leukemia, in the experiment with BT-549 breast, in the experiment on SF-295 CNS and in the experiment with COLO 205 colon was more than 100 µM in each case.
With `CCN(CCCN(CC)C(=O)N[C@@H](Cc1ccccc1)C(=O)NC)C(=O)N[C@@H](Cc1ccccc1)C(=O)NC`, the TGI in the experiment with HS 578T breast, in the experiment on A549 NSCLC, in the experiment with HT29 colon, in the experiment on HOP-92 NSCLC, with SR leukemia and in the experiment on BT-549 breast was more than 100 µM throughout. The TGI in the experiment with SF-295 CNS and in the experiment with COLO 205 colon was more than 100 µM in each case.
`CN1CCN(C(=S)N(C)C(=O)c2ccc(Cl)cc2)CC1`: the TGI with CCRF-CEM leukemia, in the experiment with HS 578T breast, in the experiment on A549 NSCLC, with HT29 colon, in the experiment with HOP-92 NSCLC and in the experiment with K-562 leukemia was more than 100 µM throughout. In addition, the TGI in the experiment with IGROV1 ovarian, with BT-549 breast, in the experiment with SF-295 CNS and in the experiment with COLO 205 colon was more than 100 µM in each case.
